PMC3951999 (Cancer cell, 2011)

What was measured:
[1] = system: SW620 (KRAS^G12V), Panc1 (KRAS^G12D) and H460 (KRAS^Q61H) cells; assay: Western blot for MEK and ERK activation in KRAS mutant cells; type: cell-based, human; details: imatinib 10μM, nilotinib 1μM, dasatinib 5μM
BV173 cells = assay: Western blots of CRAF immunoprecipitates and lysates, BV173 cells; type: cell-based, human
[2] = system: K562 cells expressing HRAS^G12V; type: cell-based, human; details: pathway already saturated
CML = details: first-line treatment of CML; ref Quintás-Cardama et al., 2009; cited from earlier work

Question: Which results are given for `Cc1ccc(NC(=O)c2ccc(CN3CCN(C)CC3)cc2)cc1Nc1nccc(-c2cccnc2)n1` [imatinib]?
Answer: MEK and ERK activation [1]: activated MEK and ERK; BCR-ABL and CRKL phosphorylation (BV173 cells): inhibited BCR-ABL and CRKL phosphorylation; MEK and ERK activity (BV173 cells): inhibited MEK and ERK; MEK and ERK phosphorylation [2]: did not increase MEK and ERK phosphorylation; patients who do not achieve complete responses (CML): 20-30%
